Reference: ChEMBL document CHEMBL3044534, “Antitumor and antileishmanial evaluation of novel heterocycles derived from quinazoline scaffold: a molecular modeling approach” (2013)

Assays:
Assay type in all cases: functional
[1] = test system: MCF7; experiment: Growth inhibition of Homo sapiens (human) MCF7 cells after 48 hr by SRB assay; conditions: MCF7, 48 h
[2] = test system: NCI-H460; experiment: Growth inhibition of Homo sapiens (human) NCI-H460 cells after 48 hr by SRB assay; conditions: NCI-H460, 48 h
[3] = test system: SF-268; experiment: Growth inhibition of Homo sapiens (human) SF268 cells after 48 hr by SRB assay; conditions: SF-268, 48 h
[4] = test system: Leishmania donovani; experiment: Antileishmanial activity against axenic amastigotes of Leishmania donovani assessed as growth inhibition at 50 uM; conditions: read-out: GI
[5] = test system: Leishmania donovani; experiment: Antileishmanial activity against axenic amastigotes of Leishmania donovani assessed as growth inhibition
[6] = test system: Leishmania donovani; experiment: Antileishmanial activity against axenic amastigotes of Leishmania donovani assessed as growth inhibition at 1 uM; conditions: read-out: GI

Row | SMILES | GI50 [1] | GI50 [2] | GI50 [3] | inhibition of growth at 50 µM [4] | GI50 [5] | inhibition of growth at 1 µM [6]
1 | Cc1nc2ccccc2c(=O)n1NCc1nc2ccccc2[nH]1 | 20 µM | 22 µM | 31.5 µM | 85% | – | –
2 | CCOC(=O)CNn1c(C)nc2ccccc2c1=O | 20.9 µM | 22.6 µM | 26.8 µM | 44% | 10 µM | –
3 | CC1=CC(C)N(c2ccccc2)C(=S)N1n1c(C)nc2ccccc2c1=O (centres undefined) | 0.7 µM | 0.2 µM | 0.03 µM | 48% | – | –
4 | Cc1nc2ccccc2c(=O)n1NC(=O)c1cc2ccccc2o1 | 10.9 µM | 12.1 µM | 22.3 µM | 28% | 14 µM | –
5 | COc1cccc2c1C(=O)c1c(O)c3c(c(O)c1C2=O)C[C@@](O)(C(=O)CO)C[C@@H]3O[C@H]1C[C@H](N)[C@H](O)[C@H](C)O1 [DOXORUBICIN] | 0.04 µM | 0.09 µM | 0.09 µM | – | – | –
6 | Cc1nc2ccccc2c(=O)n1/N=c1\scc(N)n1-c1ccccc1 | 36 µM | 28 µM | 22.5 µM | 96% | 10 µM | –
7 | Cc1nc2ccccc2c(=O)n1NC(=O)CCl | 50.1 µM | 23.2 µM | 18.4 µM | 60% | – | –
8 | CCOC(=O)c1c(N)cc(N)n1-n1c(C)nc2ccccc2c1=O | 0.4 µM | 0.1 µM | 0.9 µM | 40% | – | –
9 | Cc1nc2ccccc2c(=O)n1NC1=CSC(=C(C#N)C#N)N1c1ccccc1 | 40.6 µM | 32.6 µM | 60.4 µM | 44% | 18 µM | –
10 | Cc1nc2ccccc2c(=O)n1NCC(=O)NN | 11.8 µM | 14.5 µM | 16.7 µM | 58% | 22 µM | –
11 | Cc1nc2ccccc2c(=O)n1NC(=O)C1Nc2ccccc2C1=O (centres undefined) | 11.9 µM | 14.1 µM | 20.3 µM | 92% | 13 µM | –
12 | COc1ccc(/C=C(\Cl)C(=O)Nn2c(C)nc3ccccc3c2=O)cc1 | 0.9 µM | 0.6 µM | 0.8 µM | 84% | 28 µM | –
13 | Cc1nc2ccccc2c(=O)n1NC(=O)/C(Cl)=C/c1ccc(Cl)cc1 | 70.6 µM | 38.9 µM | 50.8 µM | 50% | 18 µM | –
14 | Cc1nc2ccccc2c(=O)n1Nc1csc(N)n1 | 0.01 µM | 0.2 µM | 0.4 µM | 72% | 22 µM | –
15 | Cc1nc2ccccc2c(=O)n1/N=C1\SCC(=O)N1c1ccccc1 | 22 µM | 30.6 µM | 38.4 µM | 44% | 12 µM | –
16 | C[C@@H]1[C@H](O)[C@@H](C)/C=C/C=C/C=C/C=C/C=C/C=C/C=C/[C@H](O[C@@H]2O[C@H](C)[C@@H](O)[C@H](N)[C@@H]2O)C[C@@H]2O[C@](O)(C[C@@H](O)C[C@@H](O)[C@H](O)CC[C@@H](O)C[C@@H](O)CC(=O)O[C@H]1C)C[C@H](O)[C@H]2C(=O)O [AMPHOTERICIN B] | – | – | – | – | – | 98%
17 | Cc1nc2ccccc2c(=O)n1Nc1cc2ccccc2oc1=O | 32 µM | 17.3 µM | 22.3 µM | 70% | – | –
18 | Cc1nc2ccccc2c(=O)n1-n1c(C)cc(=O)n(-c2ccccc2)c1=S | 22.9 µM | 43.6 µM | 36.8 µM | 66% | 12 µM | –
19 | Cc1nc2ccccc2c(=O)n1NC(=S)Nc1ccccc1 | 64.9 µM | 78.6 µM | 56.8 µM | 98% | 12 µM | –
20 | Cc1nc2ccccc2c(=O)n1NC(=O)/C(Cl)=C/c1ccccc1 | 0.03 µM | 0.02 µM | 0.05 µM | 80% | 26 µM | –
21 | CCOC(=O)c1c(N)cc(O)n1-n1c(C)nc2ccccc2c1=O | 13.1 µM | 0.9 µM | 11.5 µM | 60% | 18 µM | –
22 | Cc1nc2ccccc2c(=O)n1NCC(=O)NNc1ccccc1 | 22.6 µM | 12.9 µM | 24.8 µM | 22% | 28 µM | –
